Experimental data published in ChEMBL document CHEMBL1133170, “Binding mode of the 4-anilinoquinazoline class of protein kinase inhibitor: X-ray crystallographic studies of 4-anilinoquinazolines bound to cyclin-dependent kinase 2 and p38 kinase” (J Med Chem, 2000).

Key:
[1] = target: Cyclin-dependent kinase 2 (Homo sapiens, UniProt P24941); assay: Inhibition of Cyclin-dependent kinase 2
[2] = target: MAP kinase p38 (Homo sapiens, UniProt O15264+Q15759+Q16539+P53778); assay: Inhibition of Mitogen-activated protein kinase p38; assay type: protein assay

- IC50 [1]: 250 µM
- IC50 [2]: 6.3 µM
Compound: COc1cc2ncnc(Nc3cccc(Br)c3)c2cc1OC
